Reference: ChEMBL document CHEMBL1146740, “New analogue of arenastatin A, a potent cytotoxic spongean depsipeptide, with anti-tumor activity” (Bioorg Med Chem Lett, 2004)
≈ marks a conversion by molar mass, not a printed value.

Legend:
Mus musculus [1] = experiment: In vivo antitumor activity (reduction of tumor volume) was determined against lewis lung carcinoma, subcutaneously in mice at a dose of 2.5 mg/kg; type: functional; conditions: route intravenous
Mus musculus [2] = experiment: In vivo antitumor activity (reduction of tumor volume) was determined against lewis lung carcinoma, subcutaneously in mice at a dose of 5 mg/kg; type: functional; conditions: route intravenous
Mus musculus [3] = experiment: In vivo antitumor activity (reduction of tumor volume) was determined against lewis lung carcinoma, subcutaneously in mice at a dose of 10 mg/kg; type: functional; conditions: route intravenous
[4] = In vivo antitumor activity (reduction of tumor volume) was determined over treated/control mice at a dose of 10 mg/kg; type: functional
[5] = In vivo antitumor activity (reduction of tumor volume) was determined over treated/control mice at a dose of 2.5 mg/kg; type: functional
[6] = In vivo antitumor activity (reduction of tumor volume) was determined over treated/control mice at a dose of 5 mg/kg; type: functional
KB 3-1 = experiment: Inhibitory activity was evaluated for potent cytotoxic effect on KB-3-1 cells; type: functional, cell-based; conditions: Homo sapiens
Mus musculus [7] = experiment: In vivo antitumor activity (reduction of tumor volume) was determined against lewis lung carcinoma, subcutaneously in mice at a dose of 3.3 mg/kg; type: functional; conditions: route intravenous
Mus musculus [8] = experiment: In vivo antitumor activity (reduction of tumor volume) was determined against lewis lung carcinoma, subcutaneously in mice at a dose of 1.65 mg/kg; type: functional; conditions: route intravenous
[9] = In vivo antitumor activity (reduction of tumor volume) was determined over treated/control mice at a dose of 1.65 mg/kg; type: functional
[10] = In vivo antitumor activity (reduction of tumor volume) was determined over treated/control mice at a dose of 3.3 mg/kg; type: functional

In the case of `COc1ccc(C[C@H]2NC(=O)/C=C/C[C@@H]([C@H](C)[C@H]3O[C@@H]3c3ccccc3)OC(=O)[C@H](C(C)(C)C)OC(=O)CCNC2=O)cc1`, the Tumor volume (Mus musculus [1]) is reported as 6.6 cm*3, the Tumor volume (Mus musculus [2]) is reported as 7.1 cm*3 and the Tumor volume (Mus musculus [3]) is reported as 4.9 cm*3. It also gave a T/C [4] of 0.71, a T/C [5] of 0.96 and a T/C [6] of 1.03. The IC50 (KB 3-1) was 0.01 µg/mL (≈ 0.0165 µM).

Compound `COc1ccc(C[C@H]2NC(=O)/C=C/C[C@@H]([C@H](C)[C@H]3O[C@@H]3c3ccccc3)OC(=O)[C@H](C(C)C)OC(=O)CCNC2=O)cc1` has an IC50 (KB 3-1) of 0.03 µg/mL (≈ 0.0506 µM).

With `CO[C@@]12[C@H](COC(N)=O)C3=C(C(=O)C(C)=C(N)C3=O)N1C[C@@H]1N[C@@H]12` [MITOMYCIN] the Tumor volume (Mus musculus [7]) was 3.3 cm*3, the Tumor volume (Mus musculus [8]) was 4.2 cm*3 and the T/C [9] was 0.62. The T/C [10] was 0.48.
